In publication PMC3498381, “Isolated Toll-like Receptor Transmembrane Domains Are Capable of Oligomerization” (PLoS ONE, 2012):
No end group written: not given here.

Assays:
[1] = tested on: homotypic interaction of the same TMD peptide; experiment: Fluorescence self-quenching assay in C14-betaine micelles; assay type: binding, human; conditions: from molar fraction Kd compared with known ranges of TMD interactions
Excerpt: An apparent dissociation constant (Kd) can be determined from self-quenching interactions by varying the amount of detergent present for a fixed peptide concentration. At low detergent:peptide ratios, the TMD peptides are driven to interact; however, gradually increasing the amount of detergent present at a fixed peptide concentration will cause the TMD interactions to dissociate. Then, at some critical detergent:peptide ratio, the interaction is completely dissociated and the fluorescence plateaus. […] Fitting the data results in apparent dissociation constants, Kd, in terms of a dimensionless detergent:peptide ratio (molar fraction) as this ratio, instead of the bulk concentration, is more relevant to TMD peptide association. For TLR1 the Kd was determined to be 645.63±49.08, for TLR6 the Kd was determined to be 883.57±86.92 and for TLR2 the Kd was determined to be 4475.5±637.9. […]
Figure 5 TLR1, TLR2, and TLR6 Homotypic Interactions by Fluorescence Self-Quenching. […] Homotypic interaction affinity was studied by changes of fluorescence intensity at different molar ratios of detergent to peptide. […] Increasing detergent competes off the TMD-TMD interactions and leads to an increase in fluorescence signal. […] Kd were determined using the Hill Equation.
Fluorescence self-quenching was used to directly probe the homotypic interactions of the synthetic peptides. […] Peptide concentrations of these samples were determined by UV-VIS and adjusted with the corresponding C14-Betaine only buffers such that all peptide concentrations were 1 µM. […] Samples were allowed to equilibrate in the 96-well plate at room temperature for 2 h before measurement using a Beckman-Coulter DTX 880 Multimode Detector plate reader. […] Each data point is blank corrected for the corresponding C14-Betaine only signal and are the average of 3 different readings. To scale the data from 0 to 1, the initial data point was averaged and set to be zero by subtracting from all further readings, and the data points that are in the plateau region were averaged and then all values were divided by this average to get a maximum of 1. […]

[2] = tested on: TLR6 TMD (functional ToxR chimera); experiment: Dominant-negative (heterotypic) ToxR assay, TLR6 as dominant phenotype; assay type: cell-based, E. coli; conditions: Miller units normalized to poly-Leu* = 1 and corrected for expression, lower = stronger interaction, N in table
Excerpt: (§1) Next, we investigated heterotypic interactions of the TLRs. We specifically studied TLR2, TLR1, and TLR6 because they are cell surface expressed receptors known to form functional heterodimers. To determine the ability of these three cell surface TLRs to have heterotypic interactions within its family, we studied the ability of the TLR1, TLR2, and TLR6 TMDs to interact with the TLR receptors also expressed at the cell surface; namely, TLR1, TLR2, TLR4, TLR5, TLR6, and TLR10. We monitored these interactions using a dominant-negative ToxR assay (Fig. S1B) which works by having a second TMD expressed with a non-functional ToxR* intracellular domain. This ToxR* domain is incapable of binding the ctx promoter making any interactions with this second expressed TMD unable to produce the reporter enzyme. As such, any interaction between the functional ToxR and non-functional ToxR* TMDs will result in a reduction in signal output.
(§2) Figure 3 Cell- Surface Toll-like Recptor Heterotypic Interactions. (A) A dominant-negative ToxR assay was used to study heterotypic interactions of the cell-surface TLRs. Two TLR TMDs were encoded in the FHK12 E.coli reporter strain, one with a functional ToxR domain (dominant phenotype) and one with a nonfunctional ToxR* domain (negative phenotype). Interaction between the two different TMDs leads to a reduction in signal from that seen for homotypic interactions. The TMDs for GpA, TLR1, TLR2, and TLR6 were used with the functional ToxR domain while TMDs for poly-Leucine, TMD5, integrin αIIb, TLR1, TLR2, TLR4, TLR5, TLR6, and TLR10 were used with the nonfunctional ToxR* domain. Interactions were most prominent for the TLRs known to have heterotypic interactions – TLR2-TLR1 and TLR2-TLR6. […] We also saw interaction with the same TMD further validating the homotypic interactions. […] Each dominant phenotype was done in 3 technical replicates with each negative phenotype and >6 measurements made for each replicate. Error bars depict the standard error of the mean (n- Tables S3, S5, S7, S9). Western blots staining for MBP were performed to monitor expression levels of the constructs with the upper band being functional ToxR chimeras and the lower band being nonfunctional ToxR* chimeras – (B) GpA, (C) TLR1, (D) TLR2, and (E) TLR6. Significant differences for the same dominant phenotype were determined by use of the Tukey-Kramer test.
(§3) For heterotypic interactions one plasmid containing a functional ToxR domain (200 ng) and a second plasmid containing a non-functional ToxR* domain (200 ng) were co-transformed into chemically competent FHK12 E. coli (400 µL) by incubating on ice for 30 min, heat shock at 42°C for 90 s, incubation on ice for 2 min, and addition of SOC media (1600 µL) followed by incubation with shaking for 1 h at 37°C. This transformation mixture (50 µL) was then used to spread LB-agar plates containing cholaramphenicol (30 µg/mL), kanamycin (33 µg/mL), and ampicillin (100 µg/mL) and grown overnight at 37°C. Single colonies were selected from the plates and grown in 5 mL LB media containing cholaramphenicol (30 µg/mL), kanamycin (33 µg/mL), ampicillin (100 µg/mL), and arabinose (0.0025%) overnight (16–20 h) with shaking at 37°C. Analysis of activity was monitored as described in homotypic ToxR assays. Western blotting was done in the same manner as the homotypic ToxR assay with one band appearing for the functional ToxR construct and a second band for the nonfunctional ToxR* construct. Data were normalized to poly-Leu* Miller Units and corrected for varying protein expression levels using ImageJ (NIH) as previously reported.

[3] = tested on: TLR1 TMD (functional ToxR chimera); experiment: Dominant-negative (heterotypic) ToxR assay, TLR1 as dominant phenotype; assay type: cell-based; conditions: Miller units normalized to poly-Leu* = 1 and corrected for expression, lower = stronger interaction, N in table
Excerpt: as §1, §2, §3

[4] = tested on: GpA TMD (functional ToxR chimera); experiment: Dominant-negative (heterotypic) ToxR assay, GpA as dominant phenotype; assay type: cell-based; conditions: Miller units normalized to poly-Leu* = 1 and corrected for expression, lower = stronger interaction, N in table
Excerpt: as §1, §2, §3

TLR6*: TLR6 TMD chimera with nonfunctional ToxR* domain (negative phenotype) (GNRASITLLIVTIGATMLVLAVTVTSLCIYLGSLIN; also: fused to non-functional ToxR* (S87H) and maltose binding protein, ends not given here)
Classification of homotypic interaction strength [1]: weak | Mean TLR6-TMD* heterotypic interaction (ToxR signal) [2]: 0.2564 | Mean TLR1-TMD* heterotypic interaction (ToxR signal) [3]: 0.3349 | Mean GpA-TMD* heterotypic interaction (ToxR signal) [4]: 1.0451

TLR1*: TLR1 TMD chimera with nonfunctional ToxR* domain (negative phenotype) (GNRASITLLIVTIVATMLVLAVTVTSLCSYLGSLIN; also: fused to non-functional ToxR* (S87H) and maltose binding protein, ends not given here)
Classification of homotypic interaction strength [1]: weak | Mean TLR6-TMD* heterotypic interaction (ToxR signal) [2]: 0.3316 | Mean TLR1-TMD* heterotypic interaction (ToxR signal) [3]: 0.3722 | Mean GpA-TMD* heterotypic interaction (ToxR signal) [4]: 0.8934

TLR2*: TLR2 TMD chimera with nonfunctional ToxR* domain (negative phenotype) (GNRASALVSGMCCALFLLILLTGVLCGSLIN; cysteine pairing not given here; also: fused to non-functional ToxR* (S87H) and maltose binding protein, ends not given here)
Classification of homotypic interaction strength [1]: moderately strong | Mean TLR6-TMD* heterotypic interaction (ToxR signal) [2]: 0.2802 | Mean TLR1-TMD* heterotypic interaction (ToxR signal) [3]: 0.3243 | Mean GpA-TMD* heterotypic interaction (ToxR signal) [4]: 0.7284
